Values joined by “and” are separate entries in the source; they are usually repeats but may differ in a detail not shown here. Equal entries are not always repeated. Structures can show the parent of a compound that is named as a salt.
Tests used:
[1] = biological target: T1, OCT1 (Homo sapiens, UniProt O15245); assay: Inhibition of [14C]-metformin uptake in HEK293 cells expressing OCT1; assay type: cell-based
T1 sequence (O15245 1-554): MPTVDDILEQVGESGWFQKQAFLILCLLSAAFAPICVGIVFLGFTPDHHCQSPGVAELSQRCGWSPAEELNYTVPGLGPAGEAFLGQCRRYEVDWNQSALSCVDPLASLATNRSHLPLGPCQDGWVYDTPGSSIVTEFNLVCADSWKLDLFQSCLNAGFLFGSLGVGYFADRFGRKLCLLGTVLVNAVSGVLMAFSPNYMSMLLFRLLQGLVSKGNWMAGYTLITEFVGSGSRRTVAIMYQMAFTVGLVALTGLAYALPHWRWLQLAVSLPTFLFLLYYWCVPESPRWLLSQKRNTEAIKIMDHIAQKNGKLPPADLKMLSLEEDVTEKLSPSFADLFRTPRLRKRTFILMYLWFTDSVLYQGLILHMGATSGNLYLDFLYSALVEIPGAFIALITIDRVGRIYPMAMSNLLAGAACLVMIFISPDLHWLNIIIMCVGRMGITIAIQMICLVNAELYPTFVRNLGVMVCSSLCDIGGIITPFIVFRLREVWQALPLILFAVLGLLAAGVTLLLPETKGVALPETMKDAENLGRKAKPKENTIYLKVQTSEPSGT

[2] = biological target: T2, OCT2 (Homo sapiens, UniProt O15244); assay: Uptake in HEK293 cells overexpressing OCT2; assay type: in vitro ADME; settings: for P, OCT2 / Vmax, OCT2 / P (non-saturable clearance parameter), OCT2 / Vmax (maximum uptake rate), OCT2 / Km: HEK293-OCT2, 0.1–1000 μM; for Vmax (maximum uptake rate), OCT2: estimate ± standard error (n = 6); for Km: read-out: Km (Michaelis-Menten constant), OCT2; for Time dependent uptake in HEK-OCT2 cells versus empty vector controls (HEK-P5): 5 μM MPP+ or 50 μM metformin, 1–30 min
T2 sequence (O15244 1-555): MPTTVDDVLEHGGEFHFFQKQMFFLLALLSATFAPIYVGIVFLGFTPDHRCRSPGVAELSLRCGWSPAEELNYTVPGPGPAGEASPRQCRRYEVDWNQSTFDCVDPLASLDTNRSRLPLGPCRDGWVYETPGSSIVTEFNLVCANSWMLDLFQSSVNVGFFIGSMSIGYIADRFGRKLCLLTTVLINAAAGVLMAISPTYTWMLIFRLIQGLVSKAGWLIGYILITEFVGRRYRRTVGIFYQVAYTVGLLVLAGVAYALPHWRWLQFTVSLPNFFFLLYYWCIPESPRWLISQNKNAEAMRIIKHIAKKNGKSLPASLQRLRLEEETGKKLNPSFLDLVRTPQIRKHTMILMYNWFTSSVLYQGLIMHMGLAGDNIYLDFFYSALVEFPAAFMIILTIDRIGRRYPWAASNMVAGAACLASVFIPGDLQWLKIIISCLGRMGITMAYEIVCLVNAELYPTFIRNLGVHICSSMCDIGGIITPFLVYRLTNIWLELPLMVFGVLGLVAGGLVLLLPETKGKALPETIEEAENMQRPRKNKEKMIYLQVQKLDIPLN

[3] = biological target: T1, OCT1; assay: Uptake in HEK293 cells overexpressing OCT1; assay type: in vitro ADME; settings: for P, OCT1 / Vmax, OCT1 / P (non-saturable clearance parameter), OCT1 / Vmax (maximum uptake rate), OCT1 / Km: HEK293-OCT1, 0.1–1000 μM; for Vmax (maximum uptake rate), OCT1: estimate ± standard error (n = 6); for Km: read-out: Km (Michaelis-Menten constant), OCT1; for Time dependent uptake in HEK-OCT1 cells versus empty vector controls (HEK-P5): 5 μM MPP+ or 50 μM metformin, 1–30 min
[4] = biological target: T3, OCT3 (Homo sapiens, UniProt O75751); assay: Uptake in HEK293 cells stably overexpressing OCT3; assay type: in vitro ADME; settings: 100 μM
T3 sequence (O75751 1-556): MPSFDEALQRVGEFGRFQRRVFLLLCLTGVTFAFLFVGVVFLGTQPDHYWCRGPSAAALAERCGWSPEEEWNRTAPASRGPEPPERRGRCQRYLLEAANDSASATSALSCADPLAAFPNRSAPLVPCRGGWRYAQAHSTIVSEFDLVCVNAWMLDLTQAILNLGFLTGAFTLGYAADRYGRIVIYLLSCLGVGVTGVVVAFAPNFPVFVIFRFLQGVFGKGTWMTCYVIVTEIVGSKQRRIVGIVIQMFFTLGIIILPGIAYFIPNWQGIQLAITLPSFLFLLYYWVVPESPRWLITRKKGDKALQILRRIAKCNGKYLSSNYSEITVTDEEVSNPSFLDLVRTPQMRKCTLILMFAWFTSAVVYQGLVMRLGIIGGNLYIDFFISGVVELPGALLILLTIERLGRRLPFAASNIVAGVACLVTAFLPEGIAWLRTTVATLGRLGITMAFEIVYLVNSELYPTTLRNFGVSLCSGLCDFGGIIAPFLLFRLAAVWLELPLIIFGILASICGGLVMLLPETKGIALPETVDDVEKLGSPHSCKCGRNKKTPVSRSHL

[5] = biological target: T2, OCT2; settings: 50 μM compound, 5 μM MPP+, biguanide vs parent amine
[6] = biological target: T2, OCT2; assay: Inhibition of [14C]-metformin uptake in HEK293 cells expressing OCT2; assay type: cell-based; settings: for inhibition at 50 μM: human, HEK293 cells expressing OCT2
[7] = biological target: T1, OCT1; assay: Inhibition of [3H]-MPP+ uptake in HEK293 cells expressing OCT1; assay type: cell-based; settings: 50 μM compound, 5 μM MPP+, biguanide vs parent amine
[8] = cited from earlier work
[9] = 50 μM compound, 50 μM metformin

Work on N=C(N)NC(=N)NCCCc1ccccc1 [2c, 1-(3-Phenylpropyl)-biguanide HCl] yielded an inhibition at 50 μM ([1]; human, HEK293 cells expressing OCT1) of no less than 50%.

With N=C(N)NC(=N)NCC(c1ccccc1)c1ccccc1 [2f, 2,2-Diphenylethyl-biguanide] the “P, OCT2” value [2] was 0.6 fl/min/mg protein, the “Vmax, OCT2” value [2] was 1.8 pmol/min/mg protein and the “P (non-saturable clearance parameter), OCT2” value ([2]; 10 min) was 6e-10 ± 3e-10 µL/min/mg. The “Vmax (maximum uptake rate), OCT2” value ([2]; 10 min) was 1.8 ± 0.2 pmol/mg/min, the Km ([2]; 10 min) was 12.4 µM and 12 µM and the “P, OCT1” value [3] was 1.7 fl/min/mg protein. For the same compound, the “Vmax, OCT1” value [3] was 2.0 pmol/min/mg protein, the “P (non-saturable clearance parameter), OCT1” value ([3]; 10 min) was 1.7e-09 ± 2e-10 µL/min/mg and the “Vmax (maximum uptake rate), OCT1” value ([3]; 10 min) was 2.0 ± 0.1 pmol/mg/min. The Km ([3]; 10 min) was 14.2 µM and 14 µM and the OCT3 substrate [4] was “either none or very weak substrates”.

In the case of N=C(N)NC(=N)NCCc1ccc(-c2ccccc2)cc1 [2g, 2-(4-Biphenyl)ethyl-biguanide], the “Change of inhibition of OCT2-mediated uptake of MPP+ upon addition of the biguanide moiety” value [5] is reported as “less inhibition”.

With N=C(N)NC(=N)NCCOc1ccccc1 [2h, 1-(2-Phenoxyethyl)-biguanide] the inhibition at 50 μM [6] was no less than 50% and the “Change of inhibition of OCT1-mediated uptake of MPP+ upon addition of the biguanide moiety” value [7] was “increased inhibition”.

In the case of Cl.N=C(N)NC(=N)NC1Cc2ccccc2C1 [2j, 2,3-Dihydro-1H-inden-2-yl-biguanide HCl], the “P, OCT2” value [2] is reported as 0.1 fl/min/mg protein, the “Vmax, OCT2” value [2] is reported as 1.1 pmol/min/mg protein and the “P (non-saturable clearance parameter), OCT2” value ([2]; 10 min) is reported as 1e-10 ± 5e-11 µL/min/mg. The “Vmax (maximum uptake rate), OCT2” value ([2]; 10 min) was 1.1 ± 0.04 pmol/mg/min, the Km ([2]; 10 min) was 31.7 µM and 32 µM and the “P, OCT1” value [3] was 0.6 fl/min/mg protein. For the same compound, the “Vmax, OCT1” value [3] was 0.3 pmol/min/mg protein, the “P (non-saturable clearance parameter), OCT1” value ([3]; 10 min) was 6e-10 ± 8e-11 µL/min/mg and the “Vmax (maximum uptake rate), OCT1” value ([3]; 10 min) was 0.3 ± 0.05 pmol/mg/min. For the same compound, the Km ([3]; 10 min) was 16.9 µM and 17 µM, the “Inhibition of metformin transport in HEK-OCT1 cells” value [1, 9] was no less than 50% and the OCT3 substrate [4] was “either none or very weak substrates”. The “Uptake fold ratio in OCT3 cells” value ([4]; single concentration) was “significant increase” and the “Inhibition of metformin transport in HEK-OCT2 cells” value [6, 9] was no less than 50%.

With N=C(NN)Nc1ccc(C(=O)O)cc1 [2m, p-(3-Aminoguanidino)-benzoic Acid] the “Inhibition of OCT1 mediated metformin uptake” value [1, 9] was “inhibited” and the “Inhibition of OCT2 mediated metformin uptake” value [6, 9] was “only inhibited OCT1”.

In the case of C[n+]1ccc(-c2ccccc2)cc1 [MPP^+, 1-methyl-4-phenylpyridinium, reference compound], the “Time dependent uptake in HEK-OCT2 cells versus empty vector controls (HEK-P5)” value [2] is reported as “higher” and the “Time dependent uptake in HEK-OCT1 cells versus empty vector controls (HEK-P5)” value [3] is reported as “higher”.

In the case of CN(C)C(=N)N=C(N)N [metformin, reference compound], the “Time dependent uptake in HEK-OCT2 cells versus empty vector controls (HEK-P5)” value [2] is reported as “higher” and the “Time dependent uptake in HEK-OCT1 cells versus empty vector controls (HEK-P5)” value [3] is reported as “higher”.

With [H]/N=C(/N)N/C(=N/[H])NCCc1ccccc1 [phenformin, reference compound] the “OCT2 substrate (fold uptake increase of 1.5 and greater over HEK-P5)” value ([2]; 100 μM, 10 min, HEK-OCT2 vs empty vector) was “substrates”, the “Change of inhibition of OCT2-mediated uptake of MPP+ upon addition of the biguanide moiety” value [5] was “less inhibition” and the “OCT1 substrate (fold uptake increase of 1.5 and greater over HEK-P5)” value ([3]; 100 μM, 10 min, HEK-OCT1 vs empty vector) was “substrates”. For the same compound, the inhibition at 50 μM [6] was no less than 50% and the “Change of inhibition of OCT1-mediated uptake of MPP+ upon addition of the biguanide moiety” value [7] was “increased inhibition”.

For CC(C)[C@H](N)C(=O)OCCOCn1cnc2c(=O)[nH]c(N)nc21 [valacyclovir], the Oral bioavailability [8] is given as 50%.

Source: article PMC6328375 (Molecular pharmaceutics, 2017)
